Reference: US12336977B2, “Nitenin analogue compounds and their use in the treatment of chronic and acute pain” (SEA4US-BIOTECNOLOGIA E RECURSOS MARINHOS, LDA., priority 2019, dated 2025)

What was measured:
[1] = test system: voltage activated K+ currents (Islow, Ifast) of small diameter Dorsal Root Ganglia neurons (sdDRGns); experiment: whole-cell voltage-clamp of voltage activated K+ currents in sdDRGns; type: cell-based, rat
[2] = test system: K+ currents of small diameter dorsal-root ganglion neuron; experiment: voltage dependence of steady state of inactivation of K+ currents in sdDRGn; type: cell-based, rat; settings: sdDRGn
Text: (§1) One can observe a shift to hyperpolarized values during the nitenin treatment. The relationships were better fit with the sum of two Boltzmann functions, showing that in both conditions there are two components: one more hyperpolarized component (component 1) and one other more depolarized component (component 2).
as §1, with “treatment with the compound of formula VI.” for “nitenin treatment.”
as §1, with “treatment with the compound of formula VII.” for “nitenin treatment.”
as §1, with “treatment with the compound of formula VIII.” for “nitenin treatment.”
For the electrophysiological recordings of the ex vivo material, voltage-clamp recordings were performed on neurons isolated from rat DRGs (and TGs). Recordings were performed from the soma that often contained the proximal fraction of axon, 1 hour after the end of the cell isolation process (includes enzymatic and mechanical treatment).

O=C1OC(CO)CC1=CCCc1ccoc1 (centres unmarked) [compound of formula VIII-A]
time constant τ of the sensitive current (current subtraction, single-exponential fit) ([1]; 6.5 μg/ml, 29.4 μM): ~450 ms
Vh2 of steady state inactivation ([2]; 6.5 μg/ml, 29.4 μM, control −18.1): −35.5 mV
Vh1 of steady state inactivation ([2]; 6.5 μg/ml, 29.4 μM, control −53.6): −88.9 mV

C/C(=C\C1OC(=O)CC1O)CCCc1ccoc1 (centres unmarked) [compound of formula VII]
Vh2 of steady state inactivation ([2]; 0.1 μg/ml, 399 nM, control −13.7): −32.4 mV
Vh1 of steady state inactivation ([2]; 0.1 μg/ml, 399 nM, control −64.1): −92.6 mV

C=CC1OC(=O)CC1O (centres unmarked) [compound of formula VI]
time constant τ of the sensitive current (current subtraction, single-exponential fit) ([1]; 10 μg/ml, 77.9 μM): ~795 ms
Vh2 of steady state inactivation ([2]; 10 μg/ml, 77.9 μM, control −23.9): −40.5 mV
Vh1 of steady state inactivation ([2]; 10 μg/ml, 77.9 μM, control −91.0): −102.9 mV
